ChEMBL document CHEMBL3351874, “Rational design of inhibitors of the bacterial cell wall synthetic enzyme GlmU using virtual screening and lead-hopping” (Bioorg Med Chem, 2014)
Active and inactive are the calls of the source. The rule behind the calls is not given here.

Experiments:
[1] = test system: Streptococcus pyogenes; assay: Antibacterial activity against Streptococcus pyogenes after 18 to 24 hrs by agar dilution method; assay type: functional, organism-based
[2] = biological target: Tyrosine-protein kinase JAK1 (Homo sapiens, UniProt P23458); assay: Inhibition of human JAK1 incubated for 20 mins prior to MgCl2 addition measured after 90 mins by mobility shift assay
Sequence of Tyrosine-protein kinase JAK1 (P23458 whole entry): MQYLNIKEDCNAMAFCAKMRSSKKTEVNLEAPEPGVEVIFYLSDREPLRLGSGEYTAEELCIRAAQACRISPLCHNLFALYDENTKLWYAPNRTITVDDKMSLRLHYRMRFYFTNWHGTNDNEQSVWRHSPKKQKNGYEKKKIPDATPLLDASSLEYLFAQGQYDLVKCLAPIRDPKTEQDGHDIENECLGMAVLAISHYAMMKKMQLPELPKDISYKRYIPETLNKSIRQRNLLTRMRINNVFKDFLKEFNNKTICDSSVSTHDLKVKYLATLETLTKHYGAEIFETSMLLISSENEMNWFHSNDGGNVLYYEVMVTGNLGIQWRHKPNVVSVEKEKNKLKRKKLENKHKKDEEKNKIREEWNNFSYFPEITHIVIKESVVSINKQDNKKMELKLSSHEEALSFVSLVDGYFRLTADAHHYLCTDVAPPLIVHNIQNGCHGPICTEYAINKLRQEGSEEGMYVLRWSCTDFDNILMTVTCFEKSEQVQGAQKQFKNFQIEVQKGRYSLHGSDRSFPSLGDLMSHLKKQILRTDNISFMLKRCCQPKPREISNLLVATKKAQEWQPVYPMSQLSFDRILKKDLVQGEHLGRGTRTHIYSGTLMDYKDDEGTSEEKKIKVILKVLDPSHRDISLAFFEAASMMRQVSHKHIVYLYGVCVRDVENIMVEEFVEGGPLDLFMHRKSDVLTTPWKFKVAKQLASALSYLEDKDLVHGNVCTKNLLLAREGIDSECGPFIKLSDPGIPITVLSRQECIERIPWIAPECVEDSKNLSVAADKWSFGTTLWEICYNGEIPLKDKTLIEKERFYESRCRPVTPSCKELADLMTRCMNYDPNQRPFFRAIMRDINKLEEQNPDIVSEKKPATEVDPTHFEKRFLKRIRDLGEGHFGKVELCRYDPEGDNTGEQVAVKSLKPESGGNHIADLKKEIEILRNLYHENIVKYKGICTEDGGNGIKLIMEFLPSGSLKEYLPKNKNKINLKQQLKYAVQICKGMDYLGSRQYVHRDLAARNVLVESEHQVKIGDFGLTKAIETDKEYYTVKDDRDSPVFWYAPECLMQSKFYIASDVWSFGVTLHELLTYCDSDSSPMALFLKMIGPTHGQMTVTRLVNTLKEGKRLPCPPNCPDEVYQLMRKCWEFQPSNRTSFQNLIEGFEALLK

[3] = biological target: T1, Interleukin-1 receptor-associated kinase 4 (Homo sapiens, UniProt Q9NWZ3); assay: Inhibition of human IRAK4 incubated for 20 mins prior to MgCl2 addition measured after 90 mins by mobility shift assay
T1 sequence (Q9NWZ3 whole entry): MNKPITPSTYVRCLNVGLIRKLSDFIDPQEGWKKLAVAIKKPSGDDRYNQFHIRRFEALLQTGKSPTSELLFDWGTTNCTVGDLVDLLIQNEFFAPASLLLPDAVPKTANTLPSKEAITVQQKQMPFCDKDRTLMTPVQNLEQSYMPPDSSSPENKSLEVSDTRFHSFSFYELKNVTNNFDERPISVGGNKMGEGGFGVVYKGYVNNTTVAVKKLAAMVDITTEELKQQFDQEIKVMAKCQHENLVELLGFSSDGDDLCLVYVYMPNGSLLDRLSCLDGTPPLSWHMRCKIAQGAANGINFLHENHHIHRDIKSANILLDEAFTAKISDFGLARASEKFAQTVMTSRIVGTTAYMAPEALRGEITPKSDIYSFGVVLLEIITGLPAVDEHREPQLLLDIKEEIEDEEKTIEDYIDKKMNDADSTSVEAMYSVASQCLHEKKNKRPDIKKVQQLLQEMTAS

[4] = biological target: Aurora kinase B (Homo sapiens, UniProt Q96GD4); assay: Inhibition of human AURKB incubated for 20 mins prior to MgCl2 addition measured after 90 mins by mobility shift assay
Sequence of Aurora kinase B (Q96GD4 whole entry): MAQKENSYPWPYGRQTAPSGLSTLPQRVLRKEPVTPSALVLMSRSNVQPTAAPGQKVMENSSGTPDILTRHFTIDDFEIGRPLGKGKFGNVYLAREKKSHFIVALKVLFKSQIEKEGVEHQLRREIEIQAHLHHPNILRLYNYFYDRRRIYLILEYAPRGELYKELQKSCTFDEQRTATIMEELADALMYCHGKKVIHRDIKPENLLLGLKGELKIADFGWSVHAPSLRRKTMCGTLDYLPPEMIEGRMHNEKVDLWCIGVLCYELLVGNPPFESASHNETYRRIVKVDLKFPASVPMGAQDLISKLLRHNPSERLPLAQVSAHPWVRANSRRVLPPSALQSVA

[5] = biological target: Cyclin-dependent kinase 2 (Homo sapiens, UniProt P24941); assay: Inhibition of human CDK2 incubated for 20 mins prior to MgCl2 addition measured after 90 mins by mobility shift assay
[6] = test system: Streptococcus pneumoniae; assay: Antibacterial activity against Streptococcus pneumoniae after 18 to 24 hrs by agar dilution method; assay type: functional, organism-based
[7] = test system: Moraxella catarrhalis; assay: Antibacterial activity against Moraxella catarrhalis after 18 to 24 hrs by agar dilution method; assay type: functional, organism-based
[8] = biological target: T2, Tyrosine-protein kinase JAK3 (Homo sapiens, UniProt P52333); assay: Inhibition of human JAK3 incubated for 20 mins prior to MgCl2 addition measured after 90 mins by mobility shift assay
T2 sequence (P52333 whole entry): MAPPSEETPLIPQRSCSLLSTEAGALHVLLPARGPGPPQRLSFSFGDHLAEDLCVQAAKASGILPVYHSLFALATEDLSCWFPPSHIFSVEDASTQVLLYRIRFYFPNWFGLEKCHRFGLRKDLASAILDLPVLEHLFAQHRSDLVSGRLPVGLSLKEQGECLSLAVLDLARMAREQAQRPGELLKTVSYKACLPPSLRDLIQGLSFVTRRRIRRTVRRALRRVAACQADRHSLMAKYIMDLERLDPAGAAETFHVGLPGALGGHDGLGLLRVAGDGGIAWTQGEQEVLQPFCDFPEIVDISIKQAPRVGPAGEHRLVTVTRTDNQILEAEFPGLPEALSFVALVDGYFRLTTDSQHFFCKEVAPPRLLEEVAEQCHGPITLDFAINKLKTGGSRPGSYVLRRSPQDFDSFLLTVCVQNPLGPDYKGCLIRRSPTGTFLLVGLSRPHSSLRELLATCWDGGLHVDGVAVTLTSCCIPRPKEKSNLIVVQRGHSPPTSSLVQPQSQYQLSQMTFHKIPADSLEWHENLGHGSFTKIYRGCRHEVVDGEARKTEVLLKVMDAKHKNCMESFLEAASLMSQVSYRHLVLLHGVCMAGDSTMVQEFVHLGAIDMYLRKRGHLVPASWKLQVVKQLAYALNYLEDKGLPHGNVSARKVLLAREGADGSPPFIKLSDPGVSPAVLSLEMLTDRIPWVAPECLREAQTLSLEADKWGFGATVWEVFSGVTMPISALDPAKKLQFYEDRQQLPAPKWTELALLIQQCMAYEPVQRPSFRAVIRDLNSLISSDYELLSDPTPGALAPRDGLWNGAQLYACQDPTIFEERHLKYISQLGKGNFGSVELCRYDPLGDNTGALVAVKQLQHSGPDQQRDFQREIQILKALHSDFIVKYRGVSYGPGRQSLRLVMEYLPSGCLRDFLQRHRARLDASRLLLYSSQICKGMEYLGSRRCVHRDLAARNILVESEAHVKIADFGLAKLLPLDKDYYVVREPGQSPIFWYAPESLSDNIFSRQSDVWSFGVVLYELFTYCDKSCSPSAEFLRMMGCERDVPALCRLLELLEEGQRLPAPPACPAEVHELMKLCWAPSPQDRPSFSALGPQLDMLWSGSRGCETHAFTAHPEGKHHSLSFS

[9] = biological target: Cyclin-dependent kinase 9 (Homo sapiens, UniProt P50750); assay: Inhibition of human CDK9 incubated for 20 mins prior to MgCl2 addition measured after 90 mins by mobility shift assay
Sequence of Cyclin-dependent kinase 9 (P50750 whole entry): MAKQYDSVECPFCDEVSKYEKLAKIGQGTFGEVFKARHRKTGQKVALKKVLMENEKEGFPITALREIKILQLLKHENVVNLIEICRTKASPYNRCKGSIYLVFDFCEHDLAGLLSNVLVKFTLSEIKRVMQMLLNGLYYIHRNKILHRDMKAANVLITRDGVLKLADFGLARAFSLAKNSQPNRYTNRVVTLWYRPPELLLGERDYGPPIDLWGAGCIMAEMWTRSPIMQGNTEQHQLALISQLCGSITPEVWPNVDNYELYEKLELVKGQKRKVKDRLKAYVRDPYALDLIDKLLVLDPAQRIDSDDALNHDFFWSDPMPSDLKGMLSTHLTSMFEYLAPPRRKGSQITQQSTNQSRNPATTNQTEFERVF

[10] = biological target: Bifunctional protein GlmU (Escherichia coli, UniProt C3SLB7); assay: Inhibition of Escherichia coli ATCC 27325 GlmU expressed in Escherichia coli HMS174(DE3) incubated for 15 mins prior to MgCl2 addition measured after 30 mins by malachite green staining-based assay
Sequence of Bifunctional protein GlmU (C3SLB7 whole entry): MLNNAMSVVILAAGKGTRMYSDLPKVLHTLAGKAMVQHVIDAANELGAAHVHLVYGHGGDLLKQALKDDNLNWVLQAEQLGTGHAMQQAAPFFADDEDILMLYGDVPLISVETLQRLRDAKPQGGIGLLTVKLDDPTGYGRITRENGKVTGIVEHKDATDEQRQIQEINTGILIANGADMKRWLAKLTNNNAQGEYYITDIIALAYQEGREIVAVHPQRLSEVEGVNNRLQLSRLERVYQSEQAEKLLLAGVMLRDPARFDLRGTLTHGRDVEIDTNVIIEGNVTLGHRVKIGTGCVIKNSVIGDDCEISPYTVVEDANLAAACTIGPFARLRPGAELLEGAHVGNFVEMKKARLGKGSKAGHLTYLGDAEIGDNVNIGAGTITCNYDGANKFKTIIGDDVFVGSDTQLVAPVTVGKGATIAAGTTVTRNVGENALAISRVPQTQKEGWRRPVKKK

[11] = biological target: Cyclin-dependent kinase 1 (Homo sapiens, UniProt P06493); assay: Inhibition of human CDK1 incubated for 20 mins prior to MgCl2 addition measured after 90 mins by mobility shift assay
Sequence of Cyclin-dependent kinase 1 (P06493 whole entry): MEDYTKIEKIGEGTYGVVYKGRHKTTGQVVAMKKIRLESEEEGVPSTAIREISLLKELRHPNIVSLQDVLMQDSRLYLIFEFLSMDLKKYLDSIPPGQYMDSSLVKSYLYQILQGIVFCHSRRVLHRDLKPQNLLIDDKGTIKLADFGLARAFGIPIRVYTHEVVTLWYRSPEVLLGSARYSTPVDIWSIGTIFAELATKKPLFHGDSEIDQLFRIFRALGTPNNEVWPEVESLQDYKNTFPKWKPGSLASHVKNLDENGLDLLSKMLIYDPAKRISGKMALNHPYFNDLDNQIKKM

[12] = biological target: Tyrosine-protein kinase JAK2 (Homo sapiens, UniProt O60674); assay: Inhibition of human JAK2 incubated for 20 mins prior to MgCl2 addition measured after 90 mins by mobility shift assay
Sequence of Tyrosine-protein kinase JAK2 (O60674 whole entry): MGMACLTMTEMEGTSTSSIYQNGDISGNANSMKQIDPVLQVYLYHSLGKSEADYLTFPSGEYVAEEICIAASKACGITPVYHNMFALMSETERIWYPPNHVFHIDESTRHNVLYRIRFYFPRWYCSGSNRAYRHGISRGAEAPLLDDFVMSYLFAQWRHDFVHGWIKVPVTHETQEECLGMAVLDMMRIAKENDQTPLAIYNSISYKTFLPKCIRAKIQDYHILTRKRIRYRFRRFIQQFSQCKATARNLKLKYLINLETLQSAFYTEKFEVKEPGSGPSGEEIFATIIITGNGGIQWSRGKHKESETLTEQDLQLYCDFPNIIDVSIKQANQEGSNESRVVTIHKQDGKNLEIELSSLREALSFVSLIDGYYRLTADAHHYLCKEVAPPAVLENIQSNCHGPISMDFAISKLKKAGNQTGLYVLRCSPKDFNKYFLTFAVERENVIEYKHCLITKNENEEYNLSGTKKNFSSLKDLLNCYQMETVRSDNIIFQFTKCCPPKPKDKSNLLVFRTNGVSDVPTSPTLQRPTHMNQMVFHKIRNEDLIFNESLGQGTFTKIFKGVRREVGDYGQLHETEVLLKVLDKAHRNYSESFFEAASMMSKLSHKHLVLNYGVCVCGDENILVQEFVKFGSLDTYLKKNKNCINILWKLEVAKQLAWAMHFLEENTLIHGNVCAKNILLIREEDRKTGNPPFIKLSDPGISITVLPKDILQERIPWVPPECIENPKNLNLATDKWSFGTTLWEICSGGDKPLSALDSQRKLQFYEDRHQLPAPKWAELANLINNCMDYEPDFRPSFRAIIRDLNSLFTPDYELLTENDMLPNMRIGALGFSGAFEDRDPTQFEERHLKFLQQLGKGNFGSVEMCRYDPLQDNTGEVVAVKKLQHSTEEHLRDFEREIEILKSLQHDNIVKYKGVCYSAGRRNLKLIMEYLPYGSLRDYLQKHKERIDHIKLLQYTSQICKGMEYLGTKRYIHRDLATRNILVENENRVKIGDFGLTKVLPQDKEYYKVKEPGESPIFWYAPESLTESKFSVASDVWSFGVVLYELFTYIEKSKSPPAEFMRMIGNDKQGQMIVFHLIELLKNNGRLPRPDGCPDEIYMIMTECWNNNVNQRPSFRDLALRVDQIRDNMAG

[13] = Inhibition of Haemophilus influenzae ATCC 51907 GlmU expressed in Escherichia coli BL21(DE3) incubated for 15 mins prior to MgCl2 addition measured after 30 mins by malachite green staining-based assay
[14] = Serum protein binding in human at 10 uM after 30 mins by ultrafiltration method; assay type: ADME; settings: read-out: PB (converted)
[15] = test system: Haemophilus influenzae; assay: Antibacterial activity against Haemophilus influenzae after 18 to 24 hrs by agar dilution method; assay type: functional, organism-based
[16] = biological target: Interleukin-1 receptor-associated kinase 1 (Homo sapiens, UniProt P51617); assay: Inhibition of human IRAK1 incubated for 20 mins prior to MgCl2 addition measured after 90 mins by mobility shift assay
Sequence of Interleukin-1 receptor-associated kinase 1 (P51617 whole entry): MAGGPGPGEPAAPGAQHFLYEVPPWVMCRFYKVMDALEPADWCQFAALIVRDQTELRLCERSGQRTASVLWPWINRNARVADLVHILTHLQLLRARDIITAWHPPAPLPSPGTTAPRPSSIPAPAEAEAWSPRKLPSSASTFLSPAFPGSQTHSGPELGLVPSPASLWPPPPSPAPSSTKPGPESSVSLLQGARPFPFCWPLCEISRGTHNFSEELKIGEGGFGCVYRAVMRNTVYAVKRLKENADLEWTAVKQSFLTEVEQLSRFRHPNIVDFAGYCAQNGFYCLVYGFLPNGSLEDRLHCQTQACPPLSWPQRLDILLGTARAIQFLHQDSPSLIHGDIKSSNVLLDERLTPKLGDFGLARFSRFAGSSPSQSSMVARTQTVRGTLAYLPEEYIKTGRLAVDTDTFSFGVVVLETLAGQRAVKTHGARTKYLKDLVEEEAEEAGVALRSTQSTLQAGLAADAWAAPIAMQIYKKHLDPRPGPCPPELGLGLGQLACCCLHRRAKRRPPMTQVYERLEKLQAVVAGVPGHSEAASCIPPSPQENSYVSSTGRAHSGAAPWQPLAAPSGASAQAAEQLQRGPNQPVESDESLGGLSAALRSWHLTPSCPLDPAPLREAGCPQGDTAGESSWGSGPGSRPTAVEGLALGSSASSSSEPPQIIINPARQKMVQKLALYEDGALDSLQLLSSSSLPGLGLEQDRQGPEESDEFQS

Row | IC50 [2] [µM] | IC50 [3] [µM] | IC50 [4] [µM] | IC50 [5] [µM] | IC50 [8] [µM] | IC50 [9] [µM] | IC50 [10] [µM] | IC50 [11] [µM] | IC50 [12] [µM] | IC50 [13] [µM] | fraction unbound at 0.5 h, 10 µM [14] | IC50 [16] [µM] | SMILES | Activity [1] | Activity [6] | Activity [7] | Activity [15]
1 | > 30 | > 30 | > 30 | > 30 | > 30 | > 30 | 0.12 | > 30 | > 30 | 0.05 | 0.395 | > 30 | COc1cc(C(=O)Nc2ccc(NC(=O)C3CCCCN3)cc2)cc(-c2c[nH]c(=O)[nH]c2=O)c1 (stereo not drawn) | inactive | inactive | inactive | inactive
2 | > 30 | > 30 | 18.1 | > 30 | > 30 | > 30 | 0.97 | > 30 | > 30 | 0.077 | 0.159 | > 30 | CCNC(=O)Nc1ccc(NC(=O)c2cc(OC)cc(-c3c[nH]c(=O)[nH]c3=O)c2)cc1 | inactive | inactive | inactive | inactive
3 | > 30 | > 30 | > 30 | > 30 | > 30 | > 30 | 10.5 | > 30 | > 30 | 1.7 | 0.023 | > 30 | COc1cc2c(Nc3ccc(NC(=O)c4ccccc4)cc3)nc(N)nc2cc1O | – | – | – | –
4 | > 30 | > 30 | > 30 | > 30 | > 30 | > 30 | > 22 | > 30 | > 30 | 0.95 | < 0.01 | > 30 | COc1ccc(C(=O)Nc2ccc(NC(=O)c3ccccn3)cc2)cc1-c1c[nH]c(=O)[nH]c1=O | – | – | – | –
5 | > 30 | > 30 | 5.91 | > 30 | > 30 | > 30 | 8.2 | > 30 | > 30 | 0.51 | 0.016 | > 30 | COc1cc(C(=O)Nc2ccc(NC(=O)c3ccccn3)cc2)ccc1O | – | – | – | –
